The text below walks through data of article PMC10683023, “Targeting Glial Cells by Organic Anion-Transporting Polypeptide 1C1 (OATP1C1)-Utilizing L-Thyroxine-Derived Prodrugs” (Journal of Medicinal Chemistry, 2023).

The subject of this assay is mouse primary astrocytes. The assay can be described thus: Concentration-dependent cellular uptake into mouse primary astrocytes. As to conditions: 5–400 μM, 30 min, 37 °C. The class given is cell-based. The procedure: The mouse primary astrocytes were isolated from neonatal pups (P0-2) of wild-type mice (C57BL/6JOlaHsd) as previously described, in compliance with the European Commission Directive 2010/63/EU and approved by the Institutional Animal Care and Use Committee of the University of Eastern Finland (Animal Usage Plan numbers: EKS-006-2019).[37] Neonatal pups were decapitated, and their brains were collected in an ice-cold HBSS buffer. After tissue dissociation and washing, cells were plated on poly-L-lysine-coated flasks and cultured in DMEM supplemented with FBS, L-glutamine, and penicillin/streptomycin (50 μg/mL) for 24 h. Debris and dead cells were removed by DPBS rinsing. After 7 days, microglial cells were removed, and the remaining astrocytic monolayer was collected by trypsinization using 0.05% trypsin-ethylenediaminetetraacetic acid (EDTA) (Gibco), pelleted, and stored at −80 °C for subsequent analysis. For the cell uptake experiments, the astrocytes were seeded on 24-well plates with a density of 10^4 cells/well 3 days before the experiments.
After removal of the culture medium, U-87MG human glioma cells and mouse primary astrocytes were carefully washed with prewarmed Hank’s balanced salt solution (HBSS) containing 125.0 mM NaCl (or choline chloride in Na^+ free conditions), 4.8 mM KCl, 1.2 mM MgSO4, 1.2 mM KH2PO4, 1.3 mM CaCl2, 5.6 mM glucose, and 25.0 mM 4-(2-hydroxyethyl)piperazine-1-ethanesulfonic acid (HEPES) with the pH adjusted to either 7.4 or pH 8.5 with 1 M NaOH (or KOH in sodium-free conditions). In the experiments at lower pH (4.5–6.5), 25.0 mM HEPES was replaced by 2-(N-morpholino) ethanesulfonic acid (MES), and the pH was adjusted to 4.5, 5.5, and 6.5 by 1.0 M NaOH. Preincubation was done with 500 μL of prewarmed HBSS at 37 °C for 10 min before adding the substrate for the uptake experiments. The functionality of OATP1C1 in human glioma U-87MG cells was studied with a known substrate (L-thyroxine, T4) and of oatp1a4, 1a5, and 1a6 in mouse primary astrocytes with [6,7-^3H(N)]-estrone-3-sulfate (ES) by incubating the uptake solution (250 μL in HBSS) consisting of 5–400 μM of the substrate at 37 °C for 30 min. After incubation, the uptake was stopped by adding 500 μL of ice-cold HBSS, and the cells were washed two times with ice-cold HBSS (2 × 500 μL). The cells were then lysed with 500 μL of 0.1 M NaOH (60 min), the lysate was neutralized, and the protein was precipitated with acidic acetonitrile (ACN with 4.8% formic acid). The supernatants were analyzed by the high-performance liquid chromatography (HPLC) methods described below (T4) or by using a liquid scintillation counter (MicroBeta2 counter, PerkinElmer, Waltham, MA) (ES). The concentrations of T4 and ES were calculated from the spiked standard curve and normalized with the protein concentrations. The protein concentrations on each plate were determined as a mean of three samples by Bio-Rad Protein Assay, based on the Bradford dye-binding method, using bovine serum albumin (BSA) as a standard protein and measuring the absorbance (595 nm) by a multiplate reader (EnVision, PerkinElmer, Inc., Waltham, MA). The OATP-mediated uptake was confirmed by changing the pH of the uptake buffer in the absence of sodium ions, and in the case of OATP1C1 in human U-87MG cells, the uptake of T4 (100 μM) was studied in the presence of competing OATP1C1-ligands, diclofenac and flufenamic acid (100 μM), and in the case of oatp1a4/1a5/1a6 in mouse primary astrocytes, the uptake of ES (100 μM) was studied in the presence of competing OATO1A2-ligand, naringin (100 μM).
Cellular uptake of prodrugs 1–8 was studied as described for L-thyroxine above by adding compounds at a concentration of 5–400 μM in prewarmed HBSS buffer (250 μL) on the cell layer and incubating at 37 °C for 30 min (uptake was linear with all compounds up to 30 min). Subsequently, the cells were washed three times with ice-cold HBSS and lysed with 500 μL of 0.1 M NaOH (60 min). […]
In the case of `CC(C(=O)Oc1c(I)cc(Oc2c(I)cc(C[C@H](N)C(=O)O)cc2I)cc1I)c1cccc(C(=O)c2ccccc2)c1` (mixture of isomers) [Prodrug 2, (2S)-2-Amino-3-(4-(4-((2-(3-benzoylphenyl)propanoyl)oxy)-3,5-diiodophenoxy)-3,5-diiodophenyl)propanoic acid], the Km came to 123 ± 21 µM and the “Vmax, cellular uptake, astrocytes” value came to 5.5 ± 0.4 nmol/min/mg.
Regarding `N[C@@H](Cc1cc(I)c(OC(=O)c2ccccc2O)c(I)c1)C(=O)O` [Prodrug 3, (S)-2-Amino-3-(4-((2-hydroxybenzoyl)oxy)-3,5-diiodophenyl)propanoic acid], the Km turned out to be 685 ± 97 µM and the “Vmax, cellular uptake, astrocytes” value stood at 13.0 ± 1.3 nmol/min/mg.
On to `CC(C(=O)Oc1c(I)cc(C[C@H](N)C(=O)O)cc1I)c1ccc(-c2ccccc2)c(F)c1` (mixture of isomers) [Prodrug 7, (2S)-2-Amino-3-(4-((2-(2-fluoro-[1,1′-biphenyl]-4-yl)propanoyl)oxy)-3,5-diiodophenyl)propanoic acid], for which the Michaelis-Menten constant (Km) was 360 ± 61 µM and the “Vmax, cellular uptake, astrocytes” value came out at 10.3 ± 1.1 nmol/min/mg.
The corresponding values for `CC(C(=O)Oc1c(I)cc(Oc2c(I)cc(C[C@H](N)C(=O)O)cc2I)cc1I)c1ccc(-c2ccccc2)c(F)c1` (mixture of isomers) [Prodrug 8, (2S)-2-Amino-3-(4-(4-((2-(2-fluoro-[1,1′-biphenyl]-4-yl)propanoyl)oxy)-3,5-diiodophenoxy)-3,5-diiodophenyl)propanoic acid] are 58 ± 20 µM and 3.0 ± 0.4 nmol/min/mg.
`N[C@@H](Cc1cc(I)c(Oc2cc(I)c(OC(=O)c3ccccc3O)c(I)c2)c(I)c1)C(=O)O` [Prodrug 4, (S)-2-Amino-3-(4-(4-((2-hydroxybenzoyl)oxy)-3,5-diiodophenoxy)-3,5-diiodophenyl)propanoic acid]: the Km stood at 86 ± 32 µM and the “Vmax, cellular uptake, astrocytes” value is 5.5 ± 0.8 nmol/min/mg.
